Laboratory results published in patent US11472769B2, “SSAO inhibitors and use thereof” (Eccogene (Shanghai) Co., Ltd., priority 2019, dated 2022).

Columns and labels:
Type in all cases: biochemical
[1] = target: recombinant hMAO-A (Homo sapiens (Human), UniProt P21397); assay: MAO-A activity assay (MAO-Glo assay kit); conditions: 40 μM substrate, 30 mins pre-incubation
Procedure: (§1) The biological activities of the compounds of the present application can be assessed with methods and assays known in the art. For example, the potency of the compounds of the present application can be evaluated with an SSAO Activity Assay. Briefly, compounds of the present application can be applied to recombinant hSSAO, hMAO-A, and hMAO-B isoforms and the amine oxidase activity of the enzymes are measured after the addition and subsequent oxidation of the luminogenic substrate (e.g., with the MAO-Glo assay kit from Promega). The IC50 can be calculated, for example, by fitting the dose response curve using a 4-parameter non-linear regression routine.
(§2) Amine oxidase activity of recombinant hSSAO, hMAO-A, and hMAO-B isoforms are measured using the MAO-Glo assay kit (Promega, V1402). Ten nL test compounds (with DMSO as vehicle, 0.1% v/v for hSSAO, hMAO-A and hMAO-B) were added into assay plates by Echo, and pre-incubated with 5 μL of enzyme for 30 mins at room temperature before the addition of 5 μL of luminogenic substrate. The substrate concentration is 40 μM for human recombinant SSAO, 40 μM for human recombinant MAO-A, and 4 μM for human recombinant MAO-B. The hSSAO and hMAO-A assays were conducted in the MAO-A reaction buffer in the kit, and the MAO-B assay was conducted in the MAO-B reaction buffer. Oxidation of the substrate was conducted for 1 hr, before the addition of detecting reagent according the manufacture's protocol. The IC50 value of the tested compounds was calculated by fitting the dose response curve using a 4-parameter non-linear regression routine.

[2] = target: recombinant hMAO-B (Homo sapiens (Human), UniProt P27338); assay: MAO-B activity assay (MAO-Glo assay kit); conditions: 4 μM substrate, 30 mins pre-incubation
recombinant hMAO-B, sequence (P27338 whole entry): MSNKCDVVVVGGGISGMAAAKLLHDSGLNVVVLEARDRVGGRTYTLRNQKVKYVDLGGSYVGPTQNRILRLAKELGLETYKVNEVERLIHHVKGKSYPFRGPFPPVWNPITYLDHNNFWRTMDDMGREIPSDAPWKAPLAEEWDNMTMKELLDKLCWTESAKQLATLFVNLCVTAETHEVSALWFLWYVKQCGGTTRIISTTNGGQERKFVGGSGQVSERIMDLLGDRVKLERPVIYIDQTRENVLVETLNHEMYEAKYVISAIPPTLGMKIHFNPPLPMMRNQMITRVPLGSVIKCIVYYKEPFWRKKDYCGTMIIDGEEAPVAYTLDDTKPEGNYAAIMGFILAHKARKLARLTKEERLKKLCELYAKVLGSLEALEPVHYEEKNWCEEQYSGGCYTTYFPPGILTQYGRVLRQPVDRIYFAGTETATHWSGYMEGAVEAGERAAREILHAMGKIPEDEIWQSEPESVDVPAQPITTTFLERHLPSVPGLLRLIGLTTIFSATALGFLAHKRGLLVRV
Procedure: as §1, §2

[3] = target: recombinant hSSAO (Homo sapiens (Human), UniProt Q16853); assay: SSAO Activity Assay (MAO-Glo assay kit); conditions: 40 μM substrate, 30 mins pre-incubation
recombinant hSSAO, sequence (Q16853 whole entry): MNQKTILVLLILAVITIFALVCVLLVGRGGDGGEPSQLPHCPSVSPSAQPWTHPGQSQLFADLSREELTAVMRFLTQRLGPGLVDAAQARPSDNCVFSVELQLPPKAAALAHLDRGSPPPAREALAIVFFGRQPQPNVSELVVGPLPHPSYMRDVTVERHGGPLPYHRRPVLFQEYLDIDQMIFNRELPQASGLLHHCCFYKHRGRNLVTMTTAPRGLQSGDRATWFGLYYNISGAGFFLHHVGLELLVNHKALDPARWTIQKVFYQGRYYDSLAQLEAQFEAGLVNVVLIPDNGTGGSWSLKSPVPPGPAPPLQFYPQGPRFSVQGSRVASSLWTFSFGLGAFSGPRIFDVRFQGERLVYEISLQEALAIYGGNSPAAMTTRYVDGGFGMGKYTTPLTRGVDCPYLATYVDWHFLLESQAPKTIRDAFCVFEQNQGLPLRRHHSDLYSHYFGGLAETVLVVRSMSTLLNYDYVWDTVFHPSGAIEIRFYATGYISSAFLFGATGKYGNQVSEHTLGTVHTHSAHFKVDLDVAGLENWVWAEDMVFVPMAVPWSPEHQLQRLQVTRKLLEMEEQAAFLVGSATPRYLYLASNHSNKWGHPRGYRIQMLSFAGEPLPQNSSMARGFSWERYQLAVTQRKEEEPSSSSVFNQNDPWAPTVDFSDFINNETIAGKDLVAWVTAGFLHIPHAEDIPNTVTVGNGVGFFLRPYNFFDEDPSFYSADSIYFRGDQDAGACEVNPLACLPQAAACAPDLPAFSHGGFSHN
Procedure, shortened: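 Substrate was 4 μM in MAO-B buffer for hMAO-B and 40 μM in MAO-A buffer for hSSAO and hMAO-A. Each enzyme first saw compound (0.1% DMSO vehicle) for 30 min at room temperature.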

recombinant hMAO-A, sequence (P21397 whole entry, canonical isoform): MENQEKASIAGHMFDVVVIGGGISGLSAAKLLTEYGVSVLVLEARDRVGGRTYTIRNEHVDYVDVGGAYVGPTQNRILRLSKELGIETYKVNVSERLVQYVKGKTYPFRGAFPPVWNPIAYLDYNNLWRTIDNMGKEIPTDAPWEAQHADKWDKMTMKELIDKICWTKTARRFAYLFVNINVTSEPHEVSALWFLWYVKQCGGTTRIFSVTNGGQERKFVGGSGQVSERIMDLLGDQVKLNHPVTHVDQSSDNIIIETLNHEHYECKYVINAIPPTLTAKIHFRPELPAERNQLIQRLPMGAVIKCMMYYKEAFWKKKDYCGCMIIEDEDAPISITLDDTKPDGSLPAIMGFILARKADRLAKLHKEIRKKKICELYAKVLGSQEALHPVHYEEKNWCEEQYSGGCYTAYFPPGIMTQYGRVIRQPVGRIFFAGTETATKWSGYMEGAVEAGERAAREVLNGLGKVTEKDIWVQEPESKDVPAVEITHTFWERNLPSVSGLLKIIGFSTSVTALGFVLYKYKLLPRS

SMILES	IC50 [1] [µM]	IC50 [2] [µM]	IC50 [3] [µM]
NC/C(=C\F)COc1ccc(S(=O)(=O)CC23CCC(NS(=O)(=O)C4CC4)(CC2)CC3)cc1 [Compound 81, (E)-N-(4-(((4-((2-(aminomethyl)-3-fluoroallyl)oxy)phenyl)sulfonyl)methyl)bicyclo[2.2.2]octan-1-yl)cyclopropanesulfonamide]	> 30	> 30	< 0.02
NC/C(=C\F)COc1ccc(S(=O)(=O)CC23CCC(NC(=O)C4(F)CC4)(CC2)CC3)cc1 [Compound 86, (E)-N-(4-(((4-((2-(aminomethyl)-3-fluoroallyl)oxy)phenyl)sulfonyl)methyl)bicyclo[2.2.2]octan-1-yl)-1-fluorocyclopropane-1-carboxamide]	> 30	< 10	< 0.02
NC/C(=C\F)COc1ccc(S(=O)(=O)CC23CCC(C(=O)NC4CC(F)(F)C4)(CC2)CC3)cc1 [Compound 69, (E)-4-(((4-((2-(aminomethyl)-3-fluoroallyl)oxy)phenyl)sulfonyl)methyl)-N-(3,3-difluorocyclobutyl)bicyclo[2.2.2] octane-1-carboxamide]	> 30	10 to 30	< 0.02
NC/C(=C\F)COc1ccc(S(=O)(=O)CN2Cc3ccccc3C2=O)cc1 [Compound 118, (E)-2-(((4-((2-(aminomethyl)-3-fluoroallyl)oxy)phenyl)sulfonyl)methyl)isoindolin-1-one]	< 10	< 10	0.02 to 0.1
NC/C(=C\F)COc1ccc(S(=O)(=O)CC23CCC(C(=O)N4CC(F)(F)C4)(CC2)CC3)cc1 [Compound 72]	> 30	> 30	< 0.02
NC/C(=C\F)COc1ccc(S(=O)(=O)CN2CCOCC2=O)cc1 [Compound 130, (E)-4-(((4-((2-(aminomethyl)-3-fluoroallyl)oxy)phenyl)sulfonyl)methyl)morpholin-3-one]	> 30	> 30	0.02 to 0.1
NC/C(=C\F)COc1ccc(S(=O)(=O)Cc2cccc(C(=O)N3CCCC3)c2)cc1 [Compound 47, (E)-(3-(((4-((2-(aminomethyl)-3-fluoroallyl)oxy)phenyl)sulfonyl)methyl)phenyl)(pyrrolidin-1-yl)methanone]	> 30	> 30	0.1 to 0.5
CC(C)OCCNC(=O)C12CCC(CS(=O)(=O)c3ccc(OC/C(=C/F)CN)cc3)(CC1)CC2 [Compound 68, (E)-4-(((4-((2-(aminomethyl)-3-fluoroallyl)oxy)phenyl)sulfonyl)methyl)-N-(2-isopropoxyethyl)bicyclo[2.2.2] octane-1-carboxamide]	> 30	> 30	< 0.02
NC/C(=C\F)COc1ccc(S(=O)(=O)CC23CCC(NC(=O)C4CCC4)(CC2)CC3)cc1 [Compound 92, (E)-N-(4-(((4-((2-(aminomethyl)-3-fluoroallyl)oxy)phenyl)sulfonyl)methyl)bicyclo[2.2.2]octan-1-yl)cyclobutanecarboxamide]	> 30	10 to 30	< 0.02
NC/C(=C\F)COc1ccc(S(=O)(=O)CC23CCC(C(=O)NC4CC4)(CC2)CC3)cc1 [Compound 75, (E)-4-(((4-((2-(aminomethyl)-3-fluoroallyl)oxy)phenyl)sulfonyl)methyl)-N-cyclopropylbicyclo[2.2.2]octane-1-carboxamide]	> 30	10 to 30	< 0.02
NC/C(=C\F)COc1ccc(S(=O)(=O)CN2C(=O)C3(CC3)c3ccccc32)cc1 [Compound 120, (E)-1′-(((4-((2-(aminomethyl)-3-fluoroallyl)oxy)phenyl)sulfonyl)methyl)spiro[cyclopropane-1,3′-indolin]-2′one]	> 30	> 30	0.02 to 0.1
NC/C(=C\F)COc1ccc(S(=O)(=O)CC23CCC(NC(=O)C4CC4(F)F)(CC2)CC3)cc1 (stereo not drawn) [Compound 84, (E)-N-(4-(((4-((2-(aminomethyl)-3-fluoroallyl)oxy)phenyl)sulfonyl)methyl)bicyclo[2.2.2]octan-1-yl)-2,2-difluorocyclopropane-1-carboxamide]	> 30	10 to 30	< 0.02
NC/C(=C/F)COc1ccc(S(=O)(=O)CC23CCC(C(=O)NC4CCC4)(CC2)CC3)cc1 [Compound 140, (Z)-4-(((4-((2-(aminomethyl)-3-fluoroallyl)oxy)phenyl)sulfonyl)methyl)-N-cyclobicyclo[2.2.2]octane-1-carboxamide]	> 30	> 30	< 0.02
NC/C(=C\F)COc1ccc(S(=O)(=O)CC2CCN(C(=O)C3CC(F)(F)C3)CC2)cc1 [Compound 51, (E)-(4-(((4-((2-(aminomethyl)-3-fluoroallyl)oxy)phenyl)sulfonyl)methyl)piperidin-1-yl)(3,3-difluorocyclobutyl)methanone]	> 30	> 30	0.02 to 0.1

Further lines, results first:

IC50 [1] [µM]	IC50 [2] [µM]	IC50 [3] [µM]	SMILES
> 30	10 to 30	0.02 to 0.1	CC(CN1C(=O)CCC1(C)C)CS(=O)(=O)c1ccc(OC/C(=C/F)CN)cc1 (stereo not drawn) [Compound 111, (E)-1-(3-((4-((2-(aminomethyl)-3-fluoroallyl)oxy)phenyl)sulfonyl)-2-methylpropyl)-5,5-dimethylpyrrolidin-2-one]
> 30	10 to 30	< 0.02	NC/C(=C\F)COc1ccc(S(=O)(=O)CC23CCC(C(=O)N4CCC4)(CC2)CC3)cc1 [Compound 71]
> 30	> 30	0.02 to 0.1	CC1(CS(=O)(=O)c2ccc(OC/C(=C/F)CN)cc2)CCN(C(=O)C(C)(C)C)CC1 [Compound 54, (E)-1-(4-(((4-((2-(aminomethyl)-3-fluoroallyl)oxy)phenyl)sulfonyl)methyl)-4-methylpiperidin-1-yl)-2,2-dimethylpropan-1-one]
> 30	10 to 30	< 0.02	CC(C)(C)C(=O)NC12CCC(CS(=O)(=O)c3ccc(OC/C(=C/F)CN)cc3)(CC1)CC2 [Compound 90, (E)-N-(4-(((4-((2-(aminomethyl)-3-fluoroallyl)oxy)phenyl)sulfonyl)methyl)bicyclo[2.2.2]octan-1-yl)pivalamide]
> 30	> 30	< 0.02	CC1(NC(=O)C23CCC(CS(=O)(=O)c4ccc(OC/C(=C/F)CN)cc4)(CC2)CC3)CC1 [Compound 67, (E)-4-(((4-((2-(aminomethyl)-3-fluoroallyl)oxy)phenyl)sulfonyl)methyl)-N-(1-methylcyclopropyl)bicyclo[2.2.2] octane-1-carboxamide]
> 30	10 to 30	0.02 to 0.1	CC1(CS(=O)(=O)c2ccc(OC/C(=C/F)CN)cc2)CCN(C(=O)C2(C(F)(F)F)CC2)CC1 [Compound 55, (E)-(4-(((4-((2-(aminomethyl)-3-fluoroallyl)oxy)phenyl)sulfonyl)methyl)-4-methylpiperidin-1-yl)(1-(trifluoromethyl)cyclopropyl) methanone]
> 30	> 30	0.02 to 0.1	NC/C(=C\F)COc1ccc(S(=O)(=O)CC2(CN3CCOCC3)CC2)cc1 [Compound 116, (E)-3-fluoro-2-((4-(((1-(morpholinomethyl)cyclopropyl)methyl)sulfonyl)phenoxy)methyl) prop-2-en-1-amine]
> 30	> 30	0.02 to 0.1	CC1(C)CCC(=O)N1CS(=O)(=O)c1ccc(OC/C(=C/F)CN)cc1 [Compound 123, (E)-1-(((4-((2-(aminomethyl)-3-fluoroallyl)oxy)phenyl)sulfonyl)methyl)-5,5-dimethylpyrrolidin-2-one]
> 30	10 to 30	< 0.02	NC/C(=C\F)COc1ccc(S(=O)(=O)CC23CCC(C(=O)N4CCCC4)(CC2)CC3)cc1 [Compound 61, (E)-(4-(((4-((2-(aminomethyl)-3-fluoroallyl)oxy)phenyl)sulfonyl)methyl)bicyclo[2.2.2]octan-1-yl)(pyrrolidin-1-yl)methanone]
> 30	> 30	0.02 to 0.1	NC/C(=C\F)COc1ccc(S(=O)(=O)CC2CCN(C(=O)C3(C(F)(F)F)CC3)CC2)cc1 [Compound 49, (E)-(4-(((4-((2-(aminomethyl)-3-fluoroallyl)oxy)phenyl)sulfonyl)methyl)piperidin-1-yl)(1-(trifluoromethyl)cyclopropyl) methanone]
> 30	> 30	< 0.02	CC(C)C(=O)N1CCC(CS(=O)(=O)c2ccc(OC/C(=C/F)CN)cc2)CC1 [compound 37, (E)-1-(4-(((4-((2-(aminomethyl)-3-fluoroallyl)oxy)phenyl)sulfonyl)methyl)piperidin-1-yl)-2-methylpropan-1-one]
